Test results from patent US11672821B2, “Methods for treating respiratory conditions using ionic aqueous polysaccharide compositions” (Gerolymatos International S.A., priority 2013, dated 2023).

Assays:
IL-8 = assay: HCPt-induced IL-8 secretion in three-dimensional nasal epithelial cultures from an allergic donor, ELISA; assay type: cell-based, human; conditions: 30 μl of 20 mM HCPt, 16 hours exposure; peak of IL-8 secretion at Day 4
[1] = test system: human nasal epithelial cells; assay: Cilia beating frequency (CBF) in three-dimensional nasal epithelial cultures from an allergic donor; assay type: cell-based; conditions: Day 4, versus control

**Q.** Which results are given for [Cl][Pt-2]([Cl])([Cl])([Cl])([Cl])[Cl].[NH4+].[NH4+] [HCPt, Ammonium hexachloroplatinate]?
**A.** IL-8 secretion with HCPt alone (IL-8): efficiently induced inflammation; cilia beating frequency (CBF) with HCPt alone [1]: reduced CBF versus control
